Test results: ChEMBL document CHEMBL1123172, “Inhibitors of dihydropteroate synthase: substituent effects in the side-chain aromatic ring of 6-[[3-(aryloxy)propyl]amino]-5-nitrosoisocytosines and synthesis and inhibitory potency of bridged 5-nitrosoisocytosine-p-aminobenzoic acid analogues” (J Med Chem, 1986)

Molecular target: T1, Dihydropteroate synthase (Escherichia coli K-12, UniProt P0AC13)
T1 sequence (P0AC13 whole entry): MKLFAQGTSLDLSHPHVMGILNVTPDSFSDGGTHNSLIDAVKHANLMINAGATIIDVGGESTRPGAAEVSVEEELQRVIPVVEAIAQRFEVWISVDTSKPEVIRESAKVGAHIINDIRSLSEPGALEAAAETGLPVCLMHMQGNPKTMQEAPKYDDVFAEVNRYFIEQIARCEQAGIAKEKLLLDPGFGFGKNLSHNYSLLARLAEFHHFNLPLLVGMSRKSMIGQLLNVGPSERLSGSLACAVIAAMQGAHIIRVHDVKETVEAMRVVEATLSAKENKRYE
Experiment: In vitro concentration required to inhibit partially purified dihydropteroate synthase of Escherichia coli by 50%
Assay type: functional
Conditions: read-out: I50

IC50 [µM] | SMILES
7.3 | COc1ccc(OCCCNc2nc(N)nc(O)c2N=O)cc1
2.5 | CS(=O)(=O)c1ccc(OCCCNc2nc(N)nc(O)c2N=O)cc1
2.1 | CCCCOc1ccc(OCCCNc2nc(N)nc(O)c2N=O)cc1
1.4 | Nc1nc(O)c(N=O)c(NCCCOc2ccc(C(F)(F)F)cc2)n1
2.9 | CCOC(=O)c1ccc(OCCCNc2nc(N)nc(O)c2N=O)cc1
1 | Nc1nc(O)c(N=O)c(NCCCOc2ccc([N+](=O)[O-])cc2)n1
0.7 | COc1cc(OC)cc(OCCCNc2nc(N)nc(O)c2N=O)c1
2.2 | Nc1nc(O)c(N=O)c(NCCCOc2ccc(O)cc2)n1
3 | Nc1nc(O)c(N=O)c(NCCCOc2ccc(OCc3ccccc3)cc2)n1
1.4 | Nc1nc(O)c(N=O)c(NCCCOc2cc(Cl)cc(Cl)c2)n1
1 | Nc1nc(O)c(N=O)c(NCCCOc2ccc(Cl)cc2)n1

The remaining lines, values behind:

SMILES | IC50 [µM]
Cc1ccc(S(=O)(=O)Nc2ccc(OCCCNc3nc(N)nc(O)c3N=O)cc2)cc1 | 0.6
CCOC(=O)c1ccc(NCCCCNc2nc(N)nc(O)c2N=O)cc1 | 3
Nc1nc(O)c(N=O)c(NCCCNc2ccc(C(=O)O)cc2)n1 | 8.9
Nc1nc(NCCCOc2ccc(C(=O)O)cc2)c(N=O)c(=O)[nH]1 | 6.6
COc1cc(OCCCNc2nc(N)nc(O)c2N=O)cc(OC)c1OC | 2
Nc1nc(O)c(N=O)c(NCCCOc2ccccc2OCc2ccccc2)n1 | 18
Nc1nc(O)c(N=O)c(NCCCCNc2ccc(C(=O)O)cc2)n1 | 2.5
